Laboratory results: the supplement of paper PMC10307832

What was measured:
Assay in all cases: relative viability (nuclei count vs DMSO), 5 days (fraction); higher = more cells survive
NCI-H2023 = conditions: first compound 4 µM
How it was run: (§1)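 One day after seeding in 1536-well plates, lung cancer cell lines were dosed by pin tool. Dosing was either single-drug or a fixed anchor-drug dose plus five library-drug doses (not always all listed) in √10 steps. After 5 days, nuclei were stained in one fix-and-stain step and counted on 4× images, and relative viability is the nuclei count of treated wells over that of vehicle wells, given as the median of duplicate plates.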

NCI-H2085 = tested on: NCI-H2085
How it was run: as §1

NCI-H2170 = tested on: NCI-H2170
How it was run: as §1

NCI-H2347 = tested on: NCI-H2347
How it was run: as §1

NCI-H2405 = tested on: NCI-H2405
How it was run: as §1

NCI-H3122 = tested on: NCI-H3122
How it was run: as §1

NCI-H441 = tested on: NCI-H441
How it was run: as §1

NCI-H520 = tested on: NCI-H520
How it was run: as §1

NCI-H647 = tested on: NCI-H647
How it was run: as §1

PC-14 = tested on: PC-14
How it was run: as §1

RERF-LC-KJ = tested on: RERF-LC-KJ
How it was run: as §1

SW 900 = tested on: SW 900
How it was run: as §1

In the case of `COc1cc(N2CCC(C(N)=O)CC2)ccc1Nc1nc(N)c(Cl)c(Nc2ccccc2S(=O)(=O)C(C)C)n1` [HG-5-88-01] + COc1cc2c(Oc3ccc(NC(=O)C4(C(=O)Nc5ccc(F)cc5)CC4)cc3F)ccnc2cc1OCCCN1CCOCC1 [Foretinib] (partner 0.25 µM), the relative viability (NCI-H2023) is reported as 0.507, the relative viability (NCI-H2085; first compound 0.04 µM) is reported as 0.852 and the relative viability (NCI-H2085; first compound 0.1265 µM) is reported as 0.947. For the same molecule, the relative viability (NCI-H2085; first compound 0.4 µM) was 0.907, the relative viability (NCI-H2085; first compound 1.265 µM) was 0.704 and the relative viability (NCI-H2085; first compound 4 µM) was 0.807. For the same molecule, the relative viability (NCI-H2170; first compound 0.04 µM) was 1.01, the relative viability (NCI-H2170; first compound 0.1265 µM) was 0.973 and the relative viability (NCI-H2170; first compound 0.4 µM) was 0.967. For the same molecule, the relative viability (NCI-H2170; first compound 1.265 µM) was 0.947, the relative viability (NCI-H2170; first compound 4 µM) was 1.12 and the relative viability (NCI-H2347; first compound 0.04 µM) was 0.845. For the same molecule, the relative viability (NCI-H2347; first compound 0.1265 µM) was 0.974, the relative viability (NCI-H2347; first compound 0.4 µM) was 1.03 and the relative viability (NCI-H2347; first compound 1.265 µM) was 0.65. The relative viability (NCI-H2347; first compound 4 µM) was 0.452, the relative viability (NCI-H2405; first compound 0.04 µM) was 1.08 and the relative viability (NCI-H2405; first compound 0.1265 µM) was 1.03. It also gave a relative viability (NCI-H2405; first compound 0.4 µM) of 0.974, a relative viability (NCI-H2405; first compound 1.265 µM) of 0.571 and a relative viability (NCI-H2405; first compound 4 µM) of 0.895. For the same molecule, the relative viability (NCI-H3122; first compound 0.04 µM) was 0.891, the relative viability (NCI-H3122; first compound 0.1265 µM) was 0.684 and the relative viability (NCI-H3122; first compound 0.4 µM) was 0.205. The relative viability (NCI-H3122; first compound 1.265 µM) was 0.169, the relative viability (NCI-H3122; first compound 4 µM) was 0.15 and the relative viability (NCI-H441; first compound 0.04 µM) was 0.889. For the same molecule, the relative viability (NCI-H441; first compound 0.1265 µM) was 1.06, the relative viability (NCI-H441; first compound 0.4 µM) was 1 and the relative viability (NCI-H441; first compound 1.265 µM) was 0.771. It also gave a relative viability (NCI-H441; first compound 4 µM) of 0.839, a relative viability (NCI-H520; first compound 0.04 µM) of 0.705 and a relative viability (NCI-H520; first compound 0.1265 µM) of 0.942. It also gave a relative viability (NCI-H520; first compound 0.4 µM) of 0.629, a relative viability (NCI-H520; first compound 1.265 µM) of 0.828 and a relative viability (NCI-H520; first compound 4 µM) of 0.76. For the same molecule, the relative viability (NCI-H647; first compound 0.04 µM) was 1.33, the relative viability (NCI-H647; first compound 0.1265 µM) was 1.07 and the relative viability (NCI-H647; first compound 0.4 µM) was 1.28. It also gave a relative viability (NCI-H647; first compound 1.265 µM) of 1.05, a relative viability (NCI-H647; first compound 4 µM) of 1.31 and a relative viability (PC-14; first compound 0.04 µM) of 0.974. For the same molecule, the relative viability (PC-14; first compound 0.1265 µM) was 0.951, the relative viability (PC-14; first compound 0.4 µM) was 0.806 and the relative viability (PC-14; first compound 1.265 µM) was 0.804. It also gave a relative viability (PC-14; first compound 4 µM) of 0.699, a relative viability (RERF-LC-KJ; first compound 0.04 µM) of 0.869 and a relative viability (RERF-LC-KJ; first compound 0.1265 µM) of 0.849. It also gave a relative viability (RERF-LC-KJ; first compound 0.4 µM) of 0.839, a relative viability (RERF-LC-KJ; first compound 1.265 µM) of 0.836 and a relative viability (RERF-LC-KJ; first compound 4 µM) of 0.846. It also gave a relative viability (SW 900; first compound 0.04 µM) of 0.996, a relative viability (SW 900; first compound 0.1265 µM) of 1.08 and a relative viability (SW 900; first compound 0.4 µM) of 0.926. The relative viability (SW 900; first compound 1.265 µM) was 0.918 and the relative viability (SW 900; first compound 4 µM) was 0.493.
